Consider one compound from paper PMC8224453, “A New PqsR Inverse Agonist Potentiates Tobramycin Efficacy to Eradicate Pseudomonas aeruginosa Biofilms” (Advanced Science, 2021).

Structures are written as SMILES.

Data set [1] can be described thus: Metabolic stability, rabbit liver S9. The format is in vitro ADME. Particulars: pooled liver S9 fraction, Table S4, read-out: t1/2 rabbit liver S9. On the procedure:
subtraction and plotted using GraphPad Prism 8.4.2 (GraphPad Software, San Diego, CA, […]
USA). Solubility (S) was determined based on the First X value of AUC function using a […]
(§1) For the evaluation of combined phase I and phase II metabolic stability, the compound (1 μM) was incubated with 1 mg/mL pooled liver S9 fraction from the respective species (Xenotech), […]
(§2) 2 mM NADPH, 1 mM UDPGA, 10 mM MgCl2, 5 mM GSH and 0.1 mM PAPS at 37 °C for […]
(§3) 0, 5, 15, 30 or 60 min. The metabolic stability of Testosterone (1 μM) and verapamil (1 μM) […]
(§4) were determined in parallel to confirm the enzymatic activity of the S9 fraction. The […]
(§5) incubation was stopped by precipitation of S9 enzymes with 2 volumes of cold acetonitrile […]
(§6) containing internal standard (750 nM Diphenhydramine). Samples were stored on ice for 10 […]
(§7) min and precipitated protein was removed by centrifugation (10 min, 4 °C, 17,000 g).
(§8) Concentration of the remaining test compound at the different time points was analyzed by […]
(§9) LC-MS/MS (TSQ Quantum Access MAX, Thermo Fisher, Dreieich, Germany) and used to […]
(§10) determine half-life (t1/2). Stability of compound 4 in further S9 fractions are summarized in […]
(§11) Table S4. Metabolic stability studies in various S9 fractions. […]
guinea pig liver S9 92.5 ± 5.4
5.6. Permeability studies
Permeability of compound 4 and 17 was assessed in vitro with Calu-3 HTB-55 cell line (ATCC). […]

Data set [2] is described as follows: Metabolic stability, dog liver S9. The format is in vitro ADME. Particulars: pooled liver S9 fraction, Table S4, read-out: t1/2 dog liver S9. As to the method: as §1, §2, §3, §4, §5, §6, §7, §8, §9, §10, §11
Data set [3] is described as follows: Metabolic stability, monkey liver S9. The format is in vitro ADME. Particulars: pooled liver S9 fraction, Table S4, read-out: t1/2 monkey liver S9. On the procedure: as §1, §2, §3, §4, §5, §6, §7, §8, §9, §10, §11
A further data set deals with P. aeruginosa NH57388A. Briefly: Murine mucoid lung infection model, target engagement. The format is in vivo, Pseudomonas aeruginosa. On the procedure:
We, therefore, decided to make use of a murine sub‐chronic infection model with a mucoid infection phenotype specifically enabling to assess the on‐target activity of QSIs. […] Animals were immediately treated with QSI 4 co‐administered using methyl cellulose (dose = 5 mg kg^−1) or vehicle (control), followed by further treatments at 24 and 48 h post‐infection. The lungs were harvested at 72 h time point, homogenized and extracted using ethyl acetate. As a readout for target engagement, we quantified the signal molecule levels of HHQ, PQS, and HQNO as proximal biomarkers for the activity of the bacterial target. […] In addition, we measured bacterial burden in form of CFU count as a treatment endpoint (Section S6.3, Supporting Information). […] Moreover, CFU was reduced by four‐fold upon treatment with QSI 4 (see Table S11 in the Supporting Information). […] However, considering the impact of the host immune system on bacterial clearance and the action of some PqsR‐controlled virulence factors toward immune‐system evasion (biofilm formation, pyocyanin production, elastase LasB expression), an indirect effect on the bacterial load in the lungs is plausible. However, it has to be stated that this effect is only minor compared to typical 2‐ to 4‐log unit reductions achieved by early antibiotic treatment.^[ ^31 ^]
6.3. Design of in vivo Target Engagement Study
General. Mouse experiments were approved by the Landesamt für Soziales, Gesundheit und Verbraucherschutz of the State of Saarland in accordance with the national guidelines for animal treatment on August, 17th, 2017 (22/2017). The IVC unit was located within a biosafety level 2 laboratory and mice were allowed to acclimatize to their environment for at least seven days prior to the experiment. Throughout the experiment, the mice had access to water and food ad libitum.
Background studies were performed in order to generate typical mean and standard deviation values for biomarkers of the control group. Sample size was calculated using BiAS.
(Software Version 11.08) from these values with alpha = 0.05 and P = 0.8 for biomarker reduction of 80% resulting in a sample size of ten mice or higher for a two-sample t-test.
Primary study. Ten-week old female C57BL/6N mice were housed in an individually ventilated-cage unit with ten mice per cage and twenty mice in total. One group (from one cage) was treated with compound 4, while the other group received a sham treatment with vehicle. Mice were not randomized, and no blinding was applied.
For the infection, each mouse was anesthetized intraperitoneally with 2.025 mg of ketaminhydrochloride (Ursotamin, Serumwerk Bernburg, Germany) and 0.12 mg of xylazinhydrochloride (Xylazin, WDF, Serumwerk Bernburg). Lidocainhydrochloride (Xylocain; Aspen Pharma, Ireland) was used for local anesthesia of the epiglottis before endotracheal intubation with a flexible cannula and intra-tracheal application of the inoculum […]
Application of inoculum (start of infection, 0 h) using 20 µL viable P. aeruginosa NH57388A culture supplemented with sodium alginate (22 mg/mL, Sigma). These were mixed with 20 µL of either compound 4 (5 mg/kg BW suspended in 0.1% methylcellulose) or vehicle (0.1% methylcellulose) to conduct the first treatment simultaneously to infection via intra-tracheal application assisted by endotracheal intubation using a flexible cannula. Bacterial load was determined to be 5∙10^7 CFU per mouse by plating serial dilutions on LB-agar plates.
Subsequent treatments were performed at 24 and 48 h post infection with 20 µL of compound 4 (5 mg/kg BW suspended in 0.5% methylcellulose, 0.2 vol-% Tween-80) or vehicle (0.5% methylcellulose, 0.2 vol-% Tween 80) were administered intra-tracheally following the same procedure as the infection. 72 h post infection mice were euthanized, lungs were removed aseptically and homogenized in 500 µL sterile phosphate buffered saline over the course of […]
72 h. Again, bacterial load was determined by plating serial dilutions on LB-agar plates. The […]

[4] abbreviates: treated group, n = 7, 72 h, below LLOQ.

With `FC(F)(F)c1cc(NCc2cn(-c3ccc(Oc4ccccc4)cc3)nn2)ccn1` [Compound 4], in data set [1], the half-life at 1 μM was 20 ± 10 min. The half-life at 1 μM in data set [2] turned out to be 72.2 ± 7.6 min. For the same compound, the half-life at 1 μM in data set [3] turned out to be 22.8 ± 6.7 min. For the same compound, the “reduction of CFU / bacterial load upon treatment” value in the data set on P. aeruginosa NH57388A (mice, 5 mg kg^−1, 72 h) is “four‐fold”. The “auto‐inducer levels (HHQ, PQS, HQNO) in infected lungs” value with P. aeruginosa NH57388A (mice, 5 mg kg^−1, 72 h, p < 0.05) was “reduced significantly”. Besides, in the data set on P. aeruginosa NH57388A (treated group, n = 7, 72 h), the “CFU/mouse Mean” value was 173600 CFU/mouse, the “CFU/mouse Median” value is 147500 CFU/mouse, the “HHQ Mean” value was 1.7 pmol and the “HHQ Median” value came out at 0.9 pmol. Further, in the data set on P. aeruginosa NH57388A (treated group, n = 7, 72 h), the “HQNO Mean” value turned out to be 5.2 pmol and the “HQNO Median” value worked out at 2.3 pmol. In the data set with P. aeruginosa NH57388A (setting [4]), the “PQS Mean” value stood at 0.3 pmol and the “PQS Median” value was found to be 0.2 pmol. In the data set with P. aeruginosa NH57388A (treated vs untreated means), the “Reduction through treatment, CFU/mouse” value is 77.3%; the “Reduction through treatment, HHQ” value is listed as 99.3%; the “Reduction through treatment, HQNO” value is listed as 98.3%; the “Reduction through treatment, PQS” value is 99.1%.
